Laboratory results as given in PubChem BioAssay AID1918932 (Molecular Pharmacology Branch, DTP, NCI, 2023).
pIC50: −log10 of the molar value.

Tested on: 171881-019-R-J1-PDC complex spheroid viability
Test: Anticancer human tumor 171881-019-R-J1-PDC patient-derived invasive breast carcinoma cell line growth inhibition
Conditions: for pIC50: curve of first compound; for viability, T/C: stronger effect = lower value
Method in brief: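 Drug combinations with the LSD1 inhibitor iadademstat tested on tumor cells co-cultured as spheroids with endothelial cells and mesenchymal stem cells. Concentrations descended in half-log increments from clinical Cmax or 10 microM.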

[1] = second compound 0.1 µM, first compound 0.0316 µM
[2] = second compound 0.1 µM, first compound 0.1 µM
[3] = second compound 0.1 µM, first compound 0.316 µM
[4] = second compound 0.1 µM, first compound 1 µM
[5] = second compound 0.1 µM, first compound 3.16 µM
[6] = second compound 0.1 µM, first compound 10 µM
[7] = second compound 0.316 µM, first compound 0.0316 µM
[8] = second compound 0.316 µM, first compound 0.1 µM
[9] = second compound 0.316 µM, first compound 0.316 µM
[10] = second compound 0.316 µM, first compound 1 µM
[11] = second compound 0.316 µM, first compound 3.16 µM
[12] = second compound 0.316 µM, first compound 10 µM
[13] = second compound 1 µM, first compound 0.0316 µM
[14] = second compound 1 µM, first compound 0.1 µM
[15] = second compound 1 µM, first compound 0.316 µM
[16] = second compound 1 µM, first compound 1 µM
[17] = second compound 1 µM, first compound 3.16 µM
[18] = second compound 1 µM, first compound 10 µM
[19] = second compound 3.16 µM, first compound 0.0316 µM
[20] = second compound 3.16 µM, first compound 0.1 µM
[21] = second compound 3.16 µM, first compound 0.316 µM
[22] = second compound 3.16 µM, first compound 1 µM
[23] = second compound 3.16 µM, first compound 3.16 µM
[24] = second compound 3.16 µM, first compound 10 µM
[25] = second compound 10 µM, first compound 0.0316 µM
[26] = second compound 10 µM, first compound 0.1 µM
[27] = second compound 10 µM, first compound 0.316 µM
[28] = second compound 10 µM, first compound 1 µM
[29] = second compound 10 µM, first compound 3.16 µM
[30] = second compound 10 µM, first compound 10 µM
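Also: spheroids exposed to agents for 7 days after 3 days growth.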

Work on `CC(C)c1c(-c2ccccc2)nc2c(C#N)c[nH]n2c1=O` + NC1CCC(NC2CC2c2ccccc2)CC1 yielded a pIC50 (second compound 0.1 µM) of under 5.00, a pIC50 (second compound 0.316 µM) of under 5.00 and a pIC50 (second compound 1 µM) of under 5.00. The pIC50 (second compound 3.16 µM) was under 5.00, the pIC50 (second compound 10 µM) was under 5.00 and the viability, T/C [1] was 89.7%. It also gave a viability, T/C [2] of 75.8%, a viability, T/C [3] of 82.7% and a viability, T/C [4] of 92.2%. For the same compound, the viability, T/C [5] was 82.9%, the viability, T/C [6] was 97.8% and the viability, T/C [7] was 90.7%. It also gave a viability, T/C [8] of 93.3%, a viability, T/C [9] of 82.6% and a viability, T/C [10] of 96.1%. For the same compound, the viability, T/C [11] was 94%, the viability, T/C [12] was 91.6% and the viability, T/C [13] was 93.8%. It also gave a viability, T/C [14] of 81.3%, a viability, T/C [15] of 85.5% and a viability, T/C [16] of 100%. For the same compound, the viability, T/C [17] was 81.5%, the viability, T/C [18] was 91.2% and the viability, T/C [19] was 96.1%. It also gave a viability, T/C [20] of 90.5%, a viability, T/C [21] of 94.3% and a viability, T/C [22] of 80.3%. It also gave a viability, T/C [23] of 101%, a viability, T/C [24] of 97.3% and a viability, T/C [25] of 87.2%. It also gave a viability, T/C [26] of 90.4%, a viability, T/C [27] of 77.3% and a viability, T/C [28] of 92.6%. It also gave a viability, T/C [29] of 93.4% and a viability, T/C [30] of 90.4%.

Work on `CC1COCCN1c1cc(-c2ccnn2C)c2ccnc(-c3ccn[nH]3)c2n1` (stereo not given) + NC1CCC(NC2CC2c2ccccc2)CC1 yielded a pIC50 (second compound 0.1 µM) of 7.99, a pIC50 (second compound 0.316 µM) of 8.02 and a pIC50 (second compound 1 µM) of 7.98. It also gave a pIC50 (second compound 3.16 µM) of 7.87, a pIC50 (second compound 10 µM) of 7.86 and a viability, T/C (second compound 0.1 µM, first compound 0.00316 µM) of 57%. It also gave a viability, T/C (second compound 0.1 µM, first compound 0.01 µM) of 50.7%, a viability, T/C [1] of 18.8% and a viability, T/C [2] of 8.26%. For the same compound, the viability, T/C [3] was 6.58%, the viability, T/C [4] was 5.76% and the viability, T/C (second compound 0.316 µM, first compound 0.00316 µM) was 63.3%. It also gave a viability, T/C (second compound 0.316 µM, first compound 0.01 µM) of 49.5%, a viability, T/C [7] of 19% and a viability, T/C [8] of 8.72%. For the same compound, the viability, T/C [9] was 6.3%, the viability, T/C [10] was 6.44% and the viability, T/C (second compound 1 µM, first compound 0.00316 µM) was 65.3%. For the same compound, the viability, T/C (second compound 1 µM, first compound 0.01 µM) was 51.2%, the viability, T/C [13] was 24.1% and the viability, T/C [14] was 10.6%. For the same compound, the viability, T/C [15] was 6.7%, the viability, T/C [16] was 7.53% and the viability, T/C (second compound 3.16 µM, first compound 0.00316 µM) was 70.8%. It also gave a viability, T/C (second compound 3.16 µM, first compound 0.01 µM) of 58.9%, a viability, T/C [19] of 25.7% and a viability, T/C [20] of 9.54%. The viability, T/C [21] was 7.15%, the viability, T/C [22] was 6.61% and the viability, T/C (second compound 10 µM, first compound 0.00316 µM) was 70%. For the same compound, the viability, T/C (second compound 10 µM, first compound 0.01 µM) was 58.3%, the viability, T/C [25] was 27.1% and the viability, T/C [26] was 10.1%. It also gave a viability, T/C [27] of 7.47% and a viability, T/C [28] of 10.2%.

For `COc1ccc([C@@H](O)c2cc(-c3ncnc4cc(N5CCOCC5)ccc34)c(F)cc2Cl)nn1` + NC1CCC(NC2CC2c2ccccc2)CC1, the pIC50 (second compound 0.1 µM) was 5.92, the pIC50 (second compound 0.316 µM) was 5.94 and the pIC50 (second compound 1 µM) was 5.97. For the same compound, the pIC50 (second compound 3.16 µM) was 5.98, the pIC50 (second compound 10 µM) was 6.02 and the viability, T/C [1] was 94.6%. The viability, T/C [2] was 107%, the viability, T/C [3] was 106% and the viability, T/C [4] was 58.3%. The viability, T/C [5] was 11.3%, the viability, T/C [6] was 6.63% and the viability, T/C [7] was 94.8%. The viability, T/C [8] was 104%, the viability, T/C [9] was 112% and the viability, T/C [10] was 55.7%. It also gave a viability, T/C [11] of 10.6%, a viability, T/C [12] of 5.9% and a viability, T/C [13] of 86.7%. The viability, T/C [14] was 101%, the viability, T/C [15] was 109% and the viability, T/C [16] was 52.3%. It also gave a viability, T/C [17] of 10.4%, a viability, T/C [18] of 5.85% and a viability, T/C [19] of 99.8%. It also gave a viability, T/C [20] of 93.6%, a viability, T/C [21] of 107% and a viability, T/C [22] of 51.3%. For the same compound, the viability, T/C [23] was 9.78%, the viability, T/C [24] was 5.03% and the viability, T/C [25] was 103%. For the same compound, the viability, T/C [26] was 115%, the viability, T/C [27] was 108% and the viability, T/C [28] was 47.6%. It also gave a viability, T/C [29] of 7.96% and a viability, T/C [30] of 3.23%.
